The record followed here is patent EP2298778A1, “IMIDAZOTHIAZOLE DERIVATIVE HAVING 4,7-DIAZASPIROÝ2.5¨OCTANE RING STRUCTURE” (Daiichi Sankyo Company, Limited, priority 2008, dated 2009).

A short description of the data set: Metabolic stability test (microsomal metabolism test). It is filed as in vitro ADME. As to conditions: pH 7.4; human-derived liver microsomes, test compound remaining after addition of NADP+ and incubation at 37°C for 30 minutes; read-out: metabolic stability of T/C%. The method, then: (Test Example 3 Metabolic stability test) 100 µL of 100 mM phosphate buffer solution (pH 7.4) containing 3 µM test compound was added to 100 µL of reaction solution containing 100 mM phosphate buffer solution (pH 7.4), 30 mM glucose 6-phosphate, 10 mM MgCl2·6H2O, 3 units/mL glucose 6-phosphate 1-dehydrogenase, and 0.3 to 1.5 mgP/mL human liver microsomes and the mixture was incubated at 37°C for 20 minutes. Then, 70 µL of 100 mM phosphate buffer solution (pH 7.4) containing 3 mM NADP^+ was added and the mixture was incubated at 37°C for 30 minutes to conduct a microsomal metabolism test. The metabolic stability was calculated according to the following formula: T/C (%) = ((concentration of test compound after addition of NADP)^+and incubation for30minutes)/((concentration of test compound before addition of NADP)^+) × 100. [formula] […]
On the technique in general: Liver microsomes are a subcellular fraction often used to study metabolism.

For the compound `CC(C)C1=C(C(=O)N2[C@H](C)CC[C@H]2C(=O)N2CCNC3(CC3)C2)SC2=N[C@@](C)(c3ccc(C#N)cc3)[C@@H](c3ccc(Cl)c(F)c3)N21` [Example 30, 4-[(5R,6S)-5-(4-chloro-3-fluorophenyl)-2-{[(2S,5R)-2-(4,7-diazaspiro[2.5]oct-7-ylcarbonyl)-5-methylpyrrolidin-1-yl]carbonyl}-3-isopropyl-6-methyl-5,6-dihydroimidazo[2,1-b][1,3]thiazol-6-yl]benzonitrile], the remaining at 0.5 h was at least 50%. Then `CC(C)C1=C(C(=O)N2[C@H](C)CC[C@H]2C(=O)N2CCNC3(CC3)C2)SC2=N[C@@](C)(c3ccc(Cl)nc3)[C@@H](c3ccc(Cl)c(Cl)c3)N21` [Example 31, 7-[(5R)-1-{[(5R,6S)-6-(6-chloropyridin-3-yl)-5-(3,4-dichlorophenyl)-3-isopropyl-6-methyl-5,6-dihydroimidazo[2,1-b][1,3]thiazol-2-yl]carbonyl}-5-methyl-L-prolyl]-4,7-diazaspiro [2.5] octane], with at least 50%; and `CC[C@@H]1CC[C@@H](C(=O)N2CCNC3(CC3)C2)N1C(=O)C1=C(C(C)C)N2C(=N[C@@](C)(c3ccc(Cl)nc3)[C@H]2c2ccc(Cl)c(F)c2)S1` [Example 32, 7-[(5R)-1-{[(5R,6S)-5-(4-chloro-3-fluorophenyl)-6-(6-chloropyridin-3-yl)-3-isopropyl-6-methyl-5,6-dihydroimidazo[2,1-b][1,3]thiazol-2-yl]carbonyl}-5-ethyl-L-prolyl]-4,7-diazaspiro[2.5]octane], with at least 50%; and `CC[C@@H]1CC[C@@H](C(=O)N2CCN(C)C3(CC3)C2)N1C(=O)C1=C(C(C)C)N2C(=N[C@@](C)(c3ccc(Cl)nc3)[C@H]2c2ccc(Cl)c(F)c2)S1` [Example 33, 7-[(5R)-1-{[(5R,6S)-5-(4-chloro-3-fluorophenyl)-6-(6-chloropyridin-3-yl)-3-isopropyl-6-methyl-5,6-dihydroimidazo[2,1-b][1,3]thiazol-2-yl]carbonyl}-5-ethyl-L-prolyl]-4-methyl-4,7-diazaspiro[2.5]octane], with at least 50%. For the compound `CC(C)C1=C(C(=O)N2[C@H](CF)CC[C@H]2C(=O)N2CCNC3(CC3)C2)SC2=N[C@@](C)(c3ccc(Cl)cc3)[C@@H](c3ccc(Cl)cc3)N21` [Example 38, 7-[(5S)-1-{[(5R,6S)-5,6-bis(4-chlorophenyl)-3-isopropyl-6-methyl-5,6-dihydroimidazo[2,1-b][1,3]thiazol-2-yl]carbonyl}-5-(fluoromethyl)-L-prolyl]-4,7-diazaspiro[2.5]octane], the remaining at 0.5 h was at least 50%.

With `CC(C)C1=C(C(=O)N2[C@H](CF)CC[C@H]2C(=O)N2CCN(C)C3(CC3)C2)SC2=N[C@@](C)(c3ccc(Cl)cc3)[C@@H](c3ccc(Cl)cc3)N21` [Example 39, 7-[(5S)-1-{[(5R,6S)-5,6-bis(4-chlorophenyl)-3-isopropyl-6-methyl-5,6-dihydroimidazo[2,1-b][1,3]thiazol-2-yl]carbonyl}-5-(fluoromethyl)-L-prolyl]-4-methyl-4,7-diazaspiro[2.5]octane], the remaining at 0.5 h is at least 50%. With `CC(C)C1=C(C(=O)N2[C@H](CF)CC[C@H]2C(=O)N2CCNC3(CC3)C2)SC2=N[C@@](C)(c3ccc(Cl)nc3)[C@@H](c3ccc(Cl)c(F)c3)N21` [Example 40, 7-[(5S)-1-{[(5R,6S)-5-(4-chloro-3-fluorophenyl)-6-(6-chloropyridin-3-yl)-3-isopropyl-6-methyl-5,6-dihydroimidazo[2,1-b][1,3]thiazol-2-yl]carbonyl}-5-(fluoromethyl)-L-prolyl]-4,7-diazaspiro[2.5]octane], the remaining at 0.5 h is at least 50%. With `CC(C)C1=C(C(=O)N2[C@H](CF)CC[C@H]2C(=O)N2CCN(C)C3(CC3)C2)SC2=N[C@@](C)(c3ccc(Cl)nc3)[C@@H](c3ccc(Cl)c(F)c3)N21` [Example 41, 7-[(5S)-1-{[(5R,6S)-5-(4-chloro-3-fluorophenyl)-6-(6-chloropyridin-3-yl)-3-isopropyl-6-methyl-5,6-dihydroimidazo[2,1-b][1,3]thiazol-2-yl]carbonyl}-5-(fluoromethyl)-L-prolyl]-4-methyl-4,7-diazaspiro[2.5]octane] the figure was at least 50%; with `CC(C)C1=C(C(=O)N2C(=O)CC[C@H]2C(=O)N2CCNC3(CC3)C2)SC2=N[C@@](C)(c3ccc(Cl)cc3)[C@@H](c3ccc(Cl)cc3)N21` [Example 42, (5S)-1-{[(5R,6S)-5,6-bis(4-chlorophenyl)-3-isopropyl-6-methyl-5,6-dihydroimidazo[2,1-b][1,3]thiazol-2-yl]carbonyl}-5-(4,7-diazaspiro[2.5]oct-7-ylcarbonyl)pyrrolidin-2-one], at least 50%. Turning to `CC(C)C1=C(C(=O)N2C(=O)CC[C@H]2C(=O)N2CCNC3(CC3)C2)SC2=N[C@@](C)(c3ccc(Cl)nc3)[C@@H](c3ccc(Cl)c(F)c3)N21` [Example 44, (5S)-1-{[(5R,6S)-5-(4-chloro-3-fluorophenyl)-6-(6-chloropyridin-3-yl)-3-isopropyl-6-methyl-5,6-dihydroimidazo[2,1-b][1,3]thiazol-2-yl]carbonyl}-5-(4,7-diazaspiro[2.5]oct-7-ylcarbonyl)pyrrolidin-2-one], the remaining at 0.5 h was at least 50%.

Turning to `CC(=O)N1CCN(C(=O)[C@@H]2CCC(=O)N2C(=O)C2=C(C(C)C)N3C(=N[C@@](C)(c4ccc(Cl)nc4)[C@H]3c3ccc(Cl)c(F)c3)S2)CC12CC2` [Example 45, (5S)-5-[(4-acetyl-4,7-diazaspiro[2.5]oct-7-yl)carbonyl]-1-{[(5R,6S)-5-(4-chloro-3-fluorophenyl)-6-(6-chloropyridin-3-yl)-3-isopropyl-6-methyl-5,6-dihydroimidazo[2,1-b][1,3]thiazol-2-yl]carbonyl}pyrrolidin-2-one], the remaining at 0.5 h was at least 50%. Then `CCN(C(=O)C1=C(C(C)C)N2C(=N[C@@](C)(c3ccc(Cl)cc3)[C@H]2c2ccc(Cl)cc2)S1)C1(C(=O)N2CCNC3(CC3)C2)CC1` [Example 50, (5R,6S)-5,6-bis(4-chlorophenyl)-N-[1-(4,7-diazaspiro[2.5]oct-7-ylcarbonyl)cyclopropyl]-N-ethyl-3-isopropyl-6-methyl-5,6-dihydroimidazo[2,1-b][1,3] thiazole-2-carboxamide], with at least 50%; and `CCN(C(=O)C1=C(C(C)C)N2C(=N[C@@](C)(c3ccc(Cl)cc3)[C@H]2c2ccc(Cl)c(F)c2)S1)C1(C(=O)N2CCNC3(CC3)C2)CC1` [Example 52, (5R,6S)-5-(4-chloro-3-fluorophenyl)-6-(4-chlorophenyl)-N-[1-(4,7-diazaspiro[2.5]oct-7-ylcarbonyl)cyclopropyl]-N-ethyl-3-isopropyl-6-methyl-5,6-dihydroimidazo[2,1-b][1,3]thiazole-2-carboxamide], with at least 50%. As for `CCN(C(=O)C1=C(C(C)C)N2C(=N[C@@](C)(c3ccc(Cl)nc3)[C@H]2c2ccc(Cl)c(F)c2)S1)C1(C(=O)N2CCNC3(CC3)C2)CC1` [Example 53, (5R,6S)-5-(4-chloro-3-fluorophenyl)-6-(6-chloropyridin-3-yl)-N-[1-(4,7-diazaspiro[2.5]oct-7-ylcarbonyl)cyclopropyl]-N-ethyl-3-isopropyl-6-methyl-5,6-dihydroimidazo[2,1-b][1,3]thiazole-2-carboxamide], the remaining at 0.5 h was at least 50%. On to `CCN(C(=O)C1=C(C(C)C)N2C(=N[C@@](C)(c3ccc(Cl)cc3)[C@H]2c2ccc(Cl)cc2)S1)[C@@H](C)C(=O)N1CCNC2(CC2)C1` [Example 54, (5R,6S)-5,6-bis(4-chlorophenyl)-N-[(1S)-2-(4,7-diazaspiro[2.5]oct-7-yl)-1-methyl-2-oxoethyl]-N-ethyl-3-isopropyl-6-methyl-5,6-dihydroimidazo[2,1-b][1,3]thiazole-2-carboxamide], for which the remaining at 0.5 h was at least 50%. With `CC[C@@H]1CC[C@@H](C(=O)N2C[C@@H](C)NC3(CC3)C2)N1C(=O)C1=C(C(C)C)N2C(=N[C@@](C)(c3ccc(Cl)nc3)[C@H]2c2ccc(Cl)c(F)c2)S1` [Example 55, (5R)-7-[(5R)-1-{[(5R,6S)-5-(4-chloro-3-fluorophenyl)-6-(6-chloropyridin-3-yl)-3-isopropyl-6-methyl-5,6-dihydroimidazo[2,1-b][1,3]thiazol-2-yl]carbonyl}-5-ethyl-L-prolyl]-5-methyl-4,7-diazaspiro[2.5]octane] the figure was at least 50%; with `CC[C@@H]1CC[C@@H](C(=O)N2CC3(CC3)NC[C@@H]2C)N1C(=O)C1=C(C(C)C)N2C(=N[C@@](C)(c3ccc(Cl)nc3)[C@H]2c2ccc(Cl)c(F)c2)S1` [Example 56, (6S)-7-[(5R)-1-{[(5R,6S)-5-(4-chloro-3-fluorophenyl)-6-(6-chloropyridin-3-yl)-3-isopropyl-6-methyl-5,6-dihydroimidazo[2,1-b][1,3]thiazol-2-yl]carbonyl}-5-ethyl-L-prolyl]-6-methyl-4,7-diazaspiro[2.5]octane], at least 50%; with `CC(C)C1=C(C(=O)N2CCC[C@H]2C(=O)N2CC3(CC3)NC[C@@H]2C)SC2=N[C@@](C)(c3ccc(Cl)nc3)[C@@H](c3ccc(Cl)c(F)c3)N21` [Example 57, (6S)-7-(1-{[(5R,6S)-5-(4-chloro-3-fluorophenyl)-6-(6-chloropyridin-3-yl)-3-isopropyl-6-methyl-5,6-dihydroimidazo[2,1-b][1,3]thiazol-2-yl]carbonyl}-L-prolyl)-6-methyl-4,7-diazaspiro[2.5]octane], at least 50%.
